From patent US10696655B2, “Therapeutic compounds and uses thereof” (GENENTECH, INC., priority 2017, dated 2020)

How the values were obtained:
MYC = MYC RPL19 QuantiGene assay in MV-4-11 cells; type: cell-based; conditions: Homo sapiens, MV4-11, compound 4 hours
Excerpt: MYC RPL19 QuantiGene assay in MV-4-11 Cells

CBP = CBP (Homo sapiens (Human), UniProt Q92793); test: CBP TR-FRET binding assay; conditions: His/Flag tagged CBP 4 nM, biotin-ligand 60 nM; read-out: CBP HTRF IC50;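 further: displacement of a biotinylated small-molecule ligand from purified recombinant CBP read by TR-FRET, DMSO-only wells as control, IC50 from nonlinear curve fit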
Chain of CBP (Q92793 whole entry): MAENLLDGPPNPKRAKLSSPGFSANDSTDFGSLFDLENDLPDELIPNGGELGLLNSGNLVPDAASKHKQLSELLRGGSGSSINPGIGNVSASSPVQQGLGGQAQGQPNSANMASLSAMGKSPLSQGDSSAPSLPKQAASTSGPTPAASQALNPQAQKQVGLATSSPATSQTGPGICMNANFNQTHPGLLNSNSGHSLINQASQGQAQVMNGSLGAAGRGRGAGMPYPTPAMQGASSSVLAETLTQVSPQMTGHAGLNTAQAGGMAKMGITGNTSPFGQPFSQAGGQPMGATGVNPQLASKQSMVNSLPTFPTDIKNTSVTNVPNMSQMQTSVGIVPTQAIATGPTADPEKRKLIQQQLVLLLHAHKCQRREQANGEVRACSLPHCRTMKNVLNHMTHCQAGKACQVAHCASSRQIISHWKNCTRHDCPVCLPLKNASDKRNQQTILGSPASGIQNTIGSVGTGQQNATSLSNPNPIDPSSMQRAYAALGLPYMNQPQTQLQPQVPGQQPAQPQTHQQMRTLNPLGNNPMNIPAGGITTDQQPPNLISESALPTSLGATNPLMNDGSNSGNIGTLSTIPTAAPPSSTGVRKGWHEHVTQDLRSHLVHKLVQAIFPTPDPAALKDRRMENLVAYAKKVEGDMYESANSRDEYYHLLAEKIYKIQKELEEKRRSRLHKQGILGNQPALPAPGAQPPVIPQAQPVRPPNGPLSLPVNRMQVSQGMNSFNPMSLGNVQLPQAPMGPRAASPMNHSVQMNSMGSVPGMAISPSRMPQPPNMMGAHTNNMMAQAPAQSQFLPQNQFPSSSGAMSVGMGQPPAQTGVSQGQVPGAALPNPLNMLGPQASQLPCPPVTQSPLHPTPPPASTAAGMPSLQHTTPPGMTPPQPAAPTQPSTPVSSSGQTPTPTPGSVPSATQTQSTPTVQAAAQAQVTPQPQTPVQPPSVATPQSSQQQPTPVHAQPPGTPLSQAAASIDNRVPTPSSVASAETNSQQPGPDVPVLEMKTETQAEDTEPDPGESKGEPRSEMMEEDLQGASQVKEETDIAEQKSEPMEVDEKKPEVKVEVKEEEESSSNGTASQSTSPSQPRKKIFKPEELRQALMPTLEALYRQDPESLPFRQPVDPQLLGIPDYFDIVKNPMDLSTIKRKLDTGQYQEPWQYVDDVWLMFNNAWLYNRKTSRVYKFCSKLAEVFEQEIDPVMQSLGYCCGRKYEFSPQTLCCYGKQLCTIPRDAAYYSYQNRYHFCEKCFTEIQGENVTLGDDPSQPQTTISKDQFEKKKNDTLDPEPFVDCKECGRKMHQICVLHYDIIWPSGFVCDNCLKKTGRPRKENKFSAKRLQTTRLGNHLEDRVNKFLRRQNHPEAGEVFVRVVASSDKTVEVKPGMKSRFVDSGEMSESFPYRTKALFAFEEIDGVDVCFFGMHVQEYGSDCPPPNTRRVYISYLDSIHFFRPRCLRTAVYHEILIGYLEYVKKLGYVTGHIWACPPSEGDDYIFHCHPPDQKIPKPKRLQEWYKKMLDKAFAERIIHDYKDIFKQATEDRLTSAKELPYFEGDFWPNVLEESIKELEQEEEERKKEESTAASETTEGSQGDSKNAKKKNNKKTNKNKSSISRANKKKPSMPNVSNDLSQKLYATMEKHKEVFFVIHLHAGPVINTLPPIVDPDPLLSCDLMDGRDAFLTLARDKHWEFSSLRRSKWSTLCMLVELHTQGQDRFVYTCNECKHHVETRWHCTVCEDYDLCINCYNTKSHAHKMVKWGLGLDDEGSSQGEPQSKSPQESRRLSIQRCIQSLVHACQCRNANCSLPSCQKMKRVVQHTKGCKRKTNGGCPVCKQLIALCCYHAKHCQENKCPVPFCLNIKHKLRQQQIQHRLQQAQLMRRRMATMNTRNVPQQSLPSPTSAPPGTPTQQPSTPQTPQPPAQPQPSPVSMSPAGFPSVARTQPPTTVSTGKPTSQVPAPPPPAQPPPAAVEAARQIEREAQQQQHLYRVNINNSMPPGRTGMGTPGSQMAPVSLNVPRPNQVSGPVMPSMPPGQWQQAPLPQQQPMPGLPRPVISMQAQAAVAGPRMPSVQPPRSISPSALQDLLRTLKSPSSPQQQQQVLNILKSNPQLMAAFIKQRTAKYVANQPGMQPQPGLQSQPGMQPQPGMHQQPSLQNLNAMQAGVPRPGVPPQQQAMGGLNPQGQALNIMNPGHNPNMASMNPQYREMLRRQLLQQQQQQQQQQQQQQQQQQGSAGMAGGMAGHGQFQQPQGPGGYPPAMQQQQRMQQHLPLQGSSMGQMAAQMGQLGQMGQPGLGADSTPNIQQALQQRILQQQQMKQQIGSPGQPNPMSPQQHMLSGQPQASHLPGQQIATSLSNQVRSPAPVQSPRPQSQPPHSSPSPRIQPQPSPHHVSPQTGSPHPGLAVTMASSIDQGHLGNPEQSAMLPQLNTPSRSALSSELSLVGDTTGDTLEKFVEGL
Description: IC50 Measurements for Inhibitors Using CBP TR FRET Binding Assay
His/Flag epitope tagged CBP was cloned, expressed, and purified to homogeneity. CBP binding and inhibition was assessed by monitoring the engagement of a biotinylated small molecule compound with the target using the TR-FRET assay technology (Perkin-Elmer). Specifically, in a 384 well ProxiPlate CBP (4 nM final) was combined with biotin-ligand (60 nM final) in 50 mM HEPES (pH 7.5), 50 mM NaCl, 1 mM TCEP, 0.01% (w/v) BSA, and 0.008% (w/v) Brij-35 either in the presence of DMSO (final 0.2% DMSO) or compound dilution series in DMSO. […] After twenty minutes of equilibration, the plates were read on an Envision instrument and IC50S calculated using a four parameter non-linear curve fit.

Row | Structure (SMILES) | IC50 (MYC) [nM] | IC50 (CBP) [nM]
1 | CNC(=O)c1c[nH]c2ccc(N3CCCc4cc(-c5cnn(C)c5)c(C(F)F)cc43)cc12 [Example 52, 5-(7-(difluoromethyl)-6-(1-methyl-1H-pyrazol-4-yl)-3,4-dihydroquinolin-1(2H)-yl)-N-methyl-1H-indole-3-carboxamide] | 2180 | 9
2 | CNC(=O)c1c[nH]c2ccc(N3CCCc4cc(-c5cnn(C)c5)c(C(F)F)cc43)nc12 [Example 65] | 150 | 5
3 | CNC(=O)c1c[nH]c2ncc(N3CCCc4cc(-c5cnn(C)c5)c(C(F)F)cc43)nc12 [Example 69] | 47 | 4
4 | CCC(=O)N1CCOc2ccc(N3CCCc4cc(-c5cnn(C)c5)c(C(F)F)cc43)cc2C1 [Example 78, 1-(7-(7-(difluoromethyl)-6-(1-methyl-1H-pyrazol-4-yl)-3,4-dihydroquinolin-1(2H)-yl)-2,3-dihydrobenzo[f][1,4]oxazepin-4(5H)-yl)propan-1-one] | 780 | 22
5 | CNC(=O)c1ccc2c(c1)c(N1CCCc3cc(-c4cnn(C)c4)c(C(F)F)cc31)nn2C1CCOCC1 [Example 83, 3-(7-(difluoromethyl)-6-(1-methyl-1H-pyrazol-4-yl)-3,4-dihydroquinolin-1(2H)-yl)-N-methyl-1-(tetrahydro-2H-pyran-4-yl)-1H-indazole-5-carboxamide] | 177 | 9
6 | CN1C(=O)Cc2ccc(N3CCCc4cc(-c5cnn(C)c5)c(C(F)F)cc43)cc21 [Example 90, 6-[7-(difluoromethyl)-6-(1-methylpyrazol-4-yl)-3,4-dihydro-2H-quinolin-1-yl]-1-methyl-indolin-2-one] | 96 | 32
7 | CC(C)c1cc(N2CCCc3cc(-c4cnn(C)c4)c(C(F)F)cc32)cc2c1n(C)c(=O)n2C [Example 96, 6-(7-(difluoromethyl)-6-(1-methyl-1H-pyrazol-4-yl)-3,4-dihydroquinolin-1(2H)-yl)-4-isopropyl-1,3-dimethyl-1H-benzo[d]imidazol-2(3H)-one] | 220 | 9
8 | Cn1cc(-c2cc3c(cc2C(F)F)N(c2cc(C4CCOCC4)c4c(c2)n(C)c(=O)n4C)CCC3)cn1 [Example 97, 6-(7-(difluoromethyl)-6-(1-methyl-1H-pyrazol-4-yl)-3,4-dihydroquinolin-1(2H)-yl)-1,3-dimethyl-4-(tetrahydro-2H-pyran-4-yl)-1H-benzo[d]imidazol-2(3H)-one] | 58 | 4
9 | Cn1cc(-c2cc3c(cc2C(F)F)N(c2cc(C4=CC[S+]([O-])CC4)c4c(c2)n(C)c(=O)n4C)CCC3)cn1 (stereo not shown) [Example 98, 6-(7-(difluoromethyl)-6-(1-methyl-1H-pyrazol-4-yl)-3,4-dihydroquinolin-1(2H)-yl)-1,3-dimethyl-4-(1-oxido-3,6-dihydro-2H-thiopyran-4-yl)-1H-benzo[d]imidazol-2(3H)-one] | 86 | 4
10 | COc1cc(N2CCCc3cc(-c4cnn(C)c4)c(C(F)F)cc32)cc2c1n(C)c(=O)n2C [Example 100, 6-(7-(difluoromethyl)-6-(1-methyl-1H-pyrazol-4-yl)-3,4-dihydroquinolin-1(2H)-yl)-4-methoxy-1,3-dimethyl-1H-benzo[d]imidazol-2(3H)-one] | 164 | 10
11 | CC(=O)N1CCOc2ccc(N3CCCc4cc(-c5cnn(C)c5)c(C(F)F)cc43)cc2C1 [Example 112, 1-(7-(7-(difluoromethyl)-6-(1-methyl-1H-pyrazol-4-yl)-3,4-dihydroquinolin-1(2H)-yl)-2,3-dihydrobenzo[f][1,4]oxazepin-4(5H)-yl)ethanone] | 2100 | 32
12 | CNC(=O)N1CCOc2ccc(N3CCCc4cc(-c5cnn(C)c5)c(C(F)F)cc43)cc2C1 [Example 113, 7-(7-(difluoromethyl)-6-(1-methyl-1H-pyrazol-4-yl)-3,4-dihydroquinolin-1(2H)-yl)-N-methyl-2,3-dihydrobenzo[f][1,4]oxazepine-4(5H)-carboxamide] | 157 | 14
13 | CNC(=O)c1ccc2cccc(N3CCCc4cc(-c5cnn(C)c5)c(C(F)F)cc43)c2n1 [Example 120, 7-(difluoromethyl)-N-methyl-6-(1-methyl-1H-pyrazol-4-yl)-3,4-dihydro-2H-[1,8′-biquinoline]-2′-carboxamide] | 632 | 6
14 | CNC(=O)Nc1cc(OC)cc(N2CCCc3cc(-c4cnn(C)c4)c(C(F)F)cc32)n1 [Example 123, 1-(6-(7-(difluoromethyl)-6-(1-methyl-1H-pyrazol-4-yl)-3,4-dihydroquinolin-1(2H)-yl)-4-methoxypyridin-2-yl)-3-methylurea] | 3380 | 115

More lines, now with the values ahead:

Row | IC50 (MYC) [nM] | IC50 (CBP) [nM] | Structure (SMILES)
15 | 496 | 9 | CNC(=O)c1cn(C)c2ccc(N3CCCc4cc(-c5cnn(C)c5)c(C(F)F)cc43)cc12 [Example 50, 5-(7-(difluoromethyl)-6-(1-methyl-1H-pyrazol-4-yl)-3,4-dihydroquinolin-1(2H)-yl)-N,1-dimethyl-1H-indole-3-carboxamide]
16 | 2290 | 59 | CNC(=O)c1cn(C)c2c(Cl)cc(N3CCCc4cc(-c5cnn(C)c5)c(C(F)F)cc43)cc12 [Example 54, 7-chloro-5-(7-(difluoromethyl)-6-(1-methyl-1H-pyrazol-4-yl)-3,4-dihydroquinolin-1(2H)-yl)-N,1-dimethyl-1H-indole-3-carboxamide]
17 | 115 | 4 | CNC(=O)c1cn(C)c2ccc(N3CCCc4cc(-c5cnn(C)c5)c(C(F)F)cc43)c(F)c12 [Example 55]
18 | 4040 | 10 | CNC(=O)c1cn(C)c2cc(F)c(N3CCCc4cc(-c5cnn(C)c5)c(C(F)F)cc43)cc12 [Example 56]
19 | 302 | 9 | CNC(=O)c1cn(C)c2cc(C)c(N3CCCc4cc(-c5cnn(C)c5)c(C(F)F)cc43)cc12 [Example 57]
20 | 181 | 9 | CNC(=O)c1cn(C)c2ccc(N3CCCc4cc(-c5cnn(C)c5)c(C(F)F)cc43)nc12 [Example 58]
21 | 205 | 6 | CNC(=O)c1cn(C)c2cnc(N3CCCc4cc(-c5cnn(C)c5)c(C(F)F)cc43)cc12 [Example 59]
22 | 108 | 9 | CNC(=O)c1cn(C)c2c(C)cc(N3CCCc4cc(-c5cnn(C)c5)c(C(F)F)cc43)nc12 [Example 60]
23 | 84 | 12 | CNC(=O)c1c[nH]c2c(C(C)C)cc(N3CCCc4cc(-c5cnn(C)c5)c(C(F)F)cc43)cc12 [Example 62, 5-(7-(difluoromethyl)-6-(1-methyl-1H-pyrazol-4-yl)-3,4-dihydroquinolin-1(2H)-yl)-7-isopropyl-N-methyl-1H-indole-3-carboxamide]
24 | 53 | 2 | CNC(=O)c1c[nH]c2c(C(C)C)nc(N3CCCc4cc(-c5cnn(C)c5)c(C(F)F)cc43)cc12 [Example 63]
25 | 143 | 2 | CNC(=O)c1c[nH]c2c(C)nc(N3CCCc4cc(-c5cnn(C)c5)c(C(F)F)cc43)cc12 [Example 64, 5-(7-(difluoromethyl)-6-(1-methyl-1H-pyrazol-4-yl)-3,4-dihydroquinolin-1(2H)-yl)-N,7-dimethyl-1H-pyrrolo[2,3-c]pyridine-3-carboxamide]
26 | 46 | 4 | CNC(=O)c1c[nH]c2c(C)cc(N3CCCc4cc(-c5cnn(C)c5)c(C(F)F)cc43)nc12 [Example 66]
27 | 358 | 5 | CNC(=O)c1c[nH]c2cnc(N3CCCc4cc(-c5cnn(C)c5)c(C(F)F)cc43)cc12 [Example 67]
28 | 4380 | 15 | CNC(=O)c1c[nH]c2ncc(N3CCCc4cc(-c5cnn(C)c5)c(C(F)F)cc43)cc12 [Example 68]
29 | 377 | 16 | CNC(=O)c1cn(C)c2c(C)cc(N3CCCc4cc(-c5cnn(C)c5)c(C(F)F)cc43)cc12 [Example 104, 5-(7-(difluoromethyl)-6-(1-methyl-1H-pyrazol-4-yl)-3,4-dihydroquinolin-1(2H)-yl)-N,1,7-trimethyl-1H-indole-3-carboxamide]
30 | 86 | 11 | CNC(=O)c1cn(C)c2c(C3CCOCC3)cc(N3CCCc4cc(-c5cnn(C)c5)c(C(F)F)cc43)cc12 [Example 105, 5-(7-(difluoromethyl)-6-(1-methyl-1H-pyrazol-4-yl)-3,4-dihydroquinolin-1(2H)-yl)-N,1-dimethyl-7-(tetrahydro-2H-pyran-4-yl)-1H-indole-3-carboxamide]
31 | 147 | 16 | C=C(C)c1cc(N2CCCc3cc(-c4cnn(C)c4)c(C(F)F)cc32)cc2c(C(=O)NC)cn(C)c12 [Example 107, 5-(7-(difluoromethyl)-6-(1-methyl-1H-pyrazol-4-yl)-3,4-dihydroquinolin-1(2H)-yl)-N,1-dimethyl-7-(prop-1-en-2-yl)-1H-indole-3-carboxamide]
32 | 235 | 31 | CNC(=O)c1cn(C)c2c(C(C)C)cc(N3CCCc4cc(-c5cnn(C)c5)c(C(F)F)cc43)cc12 [Example 108, 5-(7-(difluoromethyl)-6-(1-methyl-1H-pyrazol-4-yl)-3,4-dihydroquinolin-1(2H)-yl)-7-isopropyl-N,1-dimethyl-1H-indole-3-carboxamide]
